Data reported in US10440955B2, “Methods comprising a biocidal polyamine” (Curza Global, LLC, priority 2013, dated 2019).
≈ marks a conversion by molar mass, not a printed value. Counter-ions that a name gives are not always drawn. Like-named read-outs stand apart in the source and are kept apart here.

Legend:
P. aeruginosa = assay: MIC, 96-well CAMHB, 10^5 to 10^2 CFU/mL in 24 hours; format: cell-based, Pseudomonas aeruginosa; conditions: for MIC: Pseudomonas aeruginosa
Protocol: (§1) To determine the MIC of polyamine compounds, the protocol described herein was used.
(§2) In brief, a 0.5 McFarland of each bacterial isolate was made. A 0.5 McFarland is a measure of turbidity in a liquid sample that contains approximately 1×10^∧8 CFU/mL. The 0.5 McFarland standard was diluted in cation adjusted Mueller Hinton Broth (CAMHB), and 50 μL of broth were added to a well of a 96-well plate. In addition, 50 μL of CAMHB that contained a desired concentration of antimicrobial were also added to the well for a final volume of 100 μL and a final concentration of approximately 5×10^4 CFU/well (which equated to approximately 5×10^5 CFU/mL). Each well contained a desired amount of polyamine compound in order to experimentally determine the MIC. Each 96-well plate was incubated at 37° C. for 24 hours. The contents of each well were plated on tryptic soy agar (TSA). TSA plates were incubated for 37° C. for 24 hours after which the number of CFU were counted and used to calculate the CFU/mL that remained after exposure to varying concentrations of compound. This procedure was repeated n=8 times for each concentration of antimicrobial.

MRSA = assay: as above; format: cell-based, Staphylococcus aureus; conditions: for MIC: Staphylococcus aureus, MRSA, read-out: MIC (MRSA)
Protocol: as §1
as §2, with “antimicrobial. […]” for “antimicrobial.”

L-929 cells (ATCC CCL-1) = assay: Minimal Essential Media (MEM) Elution cytotoxicity test; format: cell-based; conditions: Table 10A
Protocol: Summary: The Minimal Essential Media (MEM) Elution test was designed to determine the cytotoxicity of extractable substances. The test article was added to cell monolayers and incubated. The cell monolayers were examined and scored based on the degree of cellular destruction.
Acceptance Criteria: The United States Pharmacopeia & National Formulary (USP <87>) states that the test article meets the requirements, or receives a passing score (Pass) if the reactivity grade is not greater than grade 2 or a mild reactivity.
Acceptance criteria were based upon the negative and media controls receiving “0” reactivity grades and positive controls receiving a 3-4 reactivity grades (moderate to severe).
The cell monolayers were examined microscopically. The wells were scored as to the degree of discernable morphological cytotoxicity on a relative scale of 0 to 4:
The results from the three wells were averaged to give a final cytotoxicity score.
[…] This initial concentration was then diluted 1: 2, 1:4, 1:8, and 1:16. Multiple well cell culture plates were seeded with a verified quantity of industry standard L-929 cells (ATCC CCL-1) and incubated until approximately 80% confluent. The test articles and control extracts were added to the cell monolayers in triplicate. The cells were incubated at 37±1° C. with 5±1% CO2 for 48±3 hours.

[1] = Table 5, read-out: MIC (P. aeruginosa)
[2] = read-out: MIC (P. aeruginosa), Table 5

| SMILES | MIC (P. aeruginosa; [1]) [µM] | MIC (MRSA; Table 5) [µM] | also measured |
| --- | --- | --- | --- |
| NCCCNCCCNCc1cccc(CNCCCNCCCN)c1 [CZ-42] | 50 to 100 (≈ 18.2 to 36.5 µg/mL) | – | MIC (MRSA) (MRSA; Table 5): ++ (++ = 100 μM ≥ MIC ≥ 50 μM. MIC results of “>n μM” or “<n μM” will also be designated as ++ if 100 ≥ n ≥ 50.) |
| CC(C)CNCCCNCCCNCc1cc(Br)cc(CNCCCNCCCNCC(C)C)c1 [CZ-109, N^1,N^1′-((5-bromo-1,3-phenylene)bis(methylene))bis(N^3-(3-(isobutylamino)propyl)propane-1,3-diamine)] | < 50 | < 50 | – |
| CC(C)CNCCCNCCCNCc1cccc(CNCCCNCCCNCC(C)C)c1 [CZ-108, N^1,N^1′-(1,3-phenylenebis(methylene))bis(N^3-(3-(isobutylamino)propyl)propane-1,3-diamine)] | < 50 | < 50 | – |
| CCC(CC)COc1cc(CNCCCNCCCNCC(C)C)cc(CNCCCNCCCNCC(C)C)c1 [CZ-91, N^1,N^1′-((5-(2-ethylbutoxy)-1,3-phenylene)bis(methylene))bis(N^3-(3-(isobutylammonio)propyl)propane-1,3-diaminium) chloride] | – | – | MIC (P. aeruginosa; [2]): < 50 µM; MIC (MRSA): < 50 µM |
| NCCCNCCCNCc1cc(CO)cc(CNCCCNCCCN)c1 [CZ-53, (3,5-bis(((3-((3-aminopropyl)amino)propyl)amino)methyl)phenyl)-methanol, hydrochloride salt] | – | – | MIC (P. aeruginosa) (P. aeruginosa; Table 5): ++ to +++ |
| NCCCNC(=O)c1cccc(C(=O)NCCCN)c1 [CZ-41] | – | > 100 | – |
| CC(C)CNCCCNCCCCNCc1cc(CNCCCCNCCCNCC(C)C)cc(-c2ccccc2)c1 [CZ-111, N^1,N^1′-([1,1′-biphenyl]-3,5-diylbis(methylene))bis(N^4-(3-(isobutylamino)propyl)butane-1,4-diamine)] | < 50 | < 50 | – |
| CC(C)(C)OC(=O)NCCCNCCCNCc1cccc(CNCCCNCCCNC(=O)OC(C)(C)C)c1 [CZ-27, di-tert-butyl (((((1,3-phenylenebis(methylene))bis(azanediyl))bis(propane-3,1-diyl))bis(azanediyl))bis(propane-3,1-diyl))dicarbamate] | – | > 100 | – |
| CC(C)CNCCCNCCCNCc1cc(CNCCCNCCCNCC(C)C)cc(-c2cnn(C)c2)c1 [CZ-102, N^1,N^1′-((5-(1-methyl-1H-pyrazol-4-yl)-1,3-phenylene)bis(methylene))bis(N3-(3-(isobutylamino)propyl)propane-1,3-diamine)] | 50 to 100 (≈ 27.8 to 55.7 µg/mL) | < 50 | – |
| CCCCCCNCCCNCCCNCc1cccc(CNCCCNCCCNCCCCCC)c1 [CZ-113, N^1,N^1′-(1,3-phenylenebis(methylene))bis(N^3-(3-(hexylamino)propyl)propane-1,3-diamine)] | < 50 | < 50 | – |
| CC(C)CNCCCCCCCCCCCCNCc1cc(CNCCCCCCCCCCCCNCC(C)C)cc(-c2ccccc2)c1 [CZ-116, N^1,N^1′-([1,1′-biphenyl]-3,5-diylbis(methylene))bis(N^12-isobutyldodecane-1,12-diamine)] | < 50 | < 50 | – |
| CC(C)Oc1ccc(-c2cc(CNCCCNCCCN)cc(CNCCCNCCCN)c2)cc1CNCCCNCCCN [CZ-66, N^1,N^1′,N^1″-((4′-isopropoxy-[1,1′-biphenyl]-3,3′,5-triyl)tris(methylene))-tris(N^3-(3-aminopropyl)propane-1,3-diamine), hydrochloride salt] | – | – | Results Pass/Fail (L-929 cells (ATCC CCL-1); 25 μg/mL): Fail (a numerical grade greater than 2 is considered a cytotoxic effect, or a failing score (Fail)); Results Pass/Fail (L-929 cells (ATCC CCL-1); dilution 1:2 of 25 μg/mL): Fail (a numerical grade greater than 2 is considered a cytotoxic effect, or a failing score (Fail)); Results Pass/Fail (L-929 cells (ATCC CCL-1); dilution 1:4 of 25 μg/mL): Pass (receives a passing score (Pass) if the reactivity grade is not greater than grade 2 or a mild reactivity); Results Pass/Fail (L-929 cells (ATCC CCL-1); dilution 1:8 of 25 μg/mL): Pass (receives a passing score (Pass) if the reactivity grade is not greater than grade 2 or a mild reactivity); Results Pass/Fail (L-929 cells (ATCC CCL-1); dilution 1:16 of 25 μg/mL): Pass (receives a passing score (Pass) if the reactivity grade is not greater than grade 2 or a mild reactivity) |
| O=C1NCCCN1CCCNCc1cc(CNCCCN2CCCNC2=O)cc(-c2ccccc2)c1 [CZ-89, 1,1′-((([1,1′-biphenyl]-3,5diylbis(methylene))bis(azanediyl))bis(propane-3,1-diyl))bis(tetrahydropyrimidin-2(1H)-one)] | < 50 | < 50 | – |
| NCCCNCc1cc(CNCCCN)cc(-c2ccccc2)c1 [CZ-77, N^1,N^1′-([1,1′-biphenyl]-3,5-diylbis(methylene))bis(propane-1,3-diamine), hydrochloride salt] | – | – | MIC (P. aeruginosa; [2]): < 50 µM; MIC (MRSA): < 50 µM |
| CC(C)(C)OC(=O)NCCCNCCCNCc1cc(CNCCCNCCCN)cc(CNCCCNCCCN)c1 [CZ-51, tert-butyl (3-((3-((3,5-bis(((3-((3-aminopropyl)amino)propyl)amino)methyl)-benzyl)amino)propyl)amino)propyl)carbamate] | < 50 | < 50 | – |
| c1ccc(CNCCCNCCCNCc2cc(CNCCCNCCCNCc3ccccc3)cc(-c3ccccc3)c2)cc1 [CZ-94, N^1,N^1′-([1,1′-biphenyl]-3,5-diylbis(methylene))bis(N^3-(3-(benzylamino)propyl)propane-1,3-diamine)] | < 50 | < 50 | – |
| NCCCNCCCNCc1cc(CNCCCNCCCN)cc(OCc2ccccc2)c1 [CZ-95, N^1,N^1′-((5-(Benzyloxy)-1,3-phenylene)bis(methylene))bis(N^3-(3-aminopropyl)propane-1,3-diamine), hydrochloride salt] | – | – | MIC (P. aeruginosa; [2]): < 50 µM; MIC (MRSA): < 50 µM |
| c1cc(CNCCCNCCCNCC2CCCCC2)cc(CNCCCNCCCNCC2CCCCC2)c1 [CZ-97, N^1,N^1′-(1,3-phenylenebis(methylene))bis(N^3-(3-((cyclohexylmethyl)-amino)propyl)propane-1,3-diamine)] | < 50 | < 50 | – |
| NCCCNCCCNCc1cc(CNCCCNCCCN)cc(-c2ccc(F)cc2)c1 [CZ-75, N^1,N^1′-((4′-fluoro-[1,1′-biphenyl]-3,5-diyl)bis(methylene))bis(N3-(3-aminopropyl)propane-1,3-diamine), hydrochloride salt] | – | – | MIC (P. aeruginosa; [2]): < 50 µM; MIC (MRSA): < 50 µM |
| NCCCNCCCNCc1cc(CNCCCNCCCN)cc(-c2ccc(C(=O)N3CCCCC3)cc2)c1 [CZ-88, (3′,5′-Bis(((3-((3-aminopropyl)amino)propyl)amino)methyl)-[1,1′-biphenyl]-4-yl) (piperidin-1-yl)methanone] | < 50 | < 50 | – |
| CCCCCCNCCCNCCCCNCc1cc(CNCCCCNCCCNCCCCCC)cc(-c2ccccc2)c1 [CZ-118, N^1,N^1′-([1,1′-biphenyl]-3,5-diylbis(methylene))bis(N^4-(3-(hexylamino)propyl)butane-1,4-diamine)] | < 50 | < 50 | – |
| NCCCNCCCNCc1cc(CNCCCNCCCN)cc(Oc2ccccc2)c1 [CZ-74, N^1,N^1′-((5-phenoxy-1,3-phenylene)bis(methylene))bis(N^3-(3-aminopropyl)propane-1,3-diamine), hydrochloride salt] | – | – | MIC (P. aeruginosa; [2]): < 50 µM; MIC (MRSA): < 50 µM |
| NCCCNCCCNCc1cccc(CNCCCNCCCN)c1 [CZ-25 (Bz)] | – | < 50 | – |
| NCCCCCCCCCCCCNCc1ccccc1 [CZ-5, N^1-benzyldodecane-1,12-diamine, hydrochloride salt] | – | – | MIC (MRSA): > 100 µM |
| NCCCCNCc1ccccc1 [CZ-3, N^1-benzylbutane-1,4-diaminium chloride] | – | – | MIC (P. aeruginosa; [2]): > 100 µM |
| NCCCCCCNCc1ccccc1 [CZ-9, N^1-benzylhexane-1,6-diamine, hydrochloride salt] | – | – | MIC (MRSA): > 100 µM |
| CN(C)CCCCCCCCCCCCN(C)Cc1ccccc1 [CZ-10, N^1-Benzyl-N^1,N^12,N^12-trimethyldodecane-1,12-diamine, hydrochloride salt] | – | – | MIC (MRSA): > 100 µM |
